We go through eleven compounds from ChEMBL document CHEMBL1201862, “PubChem BioAssay data set” (2004).

Test systems include A498; CCRF-CEM; COLO 205; HCC 2998; HCT-15; HOP-92; Hs-578T; K562; LOX IMVI; MDA-MB-231; MDA-N; NCI-H23; OVCAR-4; OVCAR-5; SK-MEL-28; SR; U-251; UACC-62; MOLT-4; SF-539.
Common to all, as to assay: DTP human tumour cell line panel, 48 h

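Cultured in 96-well plates, cells were exposed to test compound for 48 hours across five concentrations. Abbreviation: GI50, concentration required for 50% inhibition of growth.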 Calls of active or inactive are those of the source. No stated cut-off is given here; in the data, active = GI50 up to about 1.1 µM and inactive = higher.

What is called GI50 is the concentration giving 50% growth inhibition. On to `C[C@]12CCC(=O)C=C1C[C@@H](O)[C@@H]1[C@@H]2CC[C@@]2(C)[C@H]1CC[C@]2(C)O`, for which the GI50 is > 100 µM (inactive) in the experiment on A498; > 100 µM (inactive) in the experiment with CCRF-CEM; > 100 µM (inactive) in the experiment with COLO 205; > 100 µM (inactive) with HCC 2998; greater than 100 µM with HCT-15; > 100 µM (inactive) with HOP-92. Also, the GI50 with Hs-578T, with K562, with LOX IMVI, with MDA-MB-231, in the experiment with MDA-N and in the experiment with NCI-H23 was > 100 µM (inactive) in each case. In addition, the GI50 in the experiment with OVCAR-4, with OVCAR-5, with SK-MEL-28, in the experiment on SR, with U-251 and in the experiment with UACC-62 was > 100 µM (inactive) throughout.
For `CC1CCC2C(C)(C)CC3(C)CCC1C23O` (centres undefined), the GI50 in the experiment with A498 was 18.5 µM (inactive); in the experiment with CCRF-CEM, 4.02 µM (inactive); in the experiment on COLO 205, 18.3 µM (inactive); in the experiment on HCT-15 it was 16.9 µM; with HOP-92, 13.3 µM (inactive); with Hs-578T, 16.7 µM (inactive). The GI50 in the experiment on K562 was 12.4 µM (inactive); in the experiment on LOX IMVI, 15.3 µM (inactive); with MDA-MB-231 it was 16.2 µM (inactive); in the experiment with MDA-N, 12.7 µM (inactive); with MOLT-4, 11.2 µM (inactive); with NCI-H23 it was 16.1 µM (inactive). Also, the GI50 with OVCAR-4 is 22.1 µM (inactive); in the experiment with OVCAR-5, 18.9 µM (inactive); in the experiment with SF-539 it was 17.8 µM (inactive); in the experiment with SK-MEL-28, 16.3 µM (inactive); in the experiment with SR it was 12.3 µM (inactive); in the experiment on U-251 it was 16 µM (inactive). The GI50 in the experiment with UACC-62 is 14.9 µM (inactive).
Take `OCC(S)CS.[Bi]` (centres undefined): the GI50 with A498 was 27 µM (inactive); in the experiment with CCRF-CEM, 1.25 µM (inactive); with COLO 205, 14.5 µM (inactive); in the experiment with HCC 2998, 13.6 µM (inactive); in the experiment with HCT-15, 15 µM; in the experiment on HOP-92 it was 23.7 µM (inactive). In addition, the GI50 is 15.9 µM (inactive) with Hs-578T; 5.68 µM (inactive) in the experiment on K562; 20.7 µM (inactive) in the experiment on LOX IMVI; 24.4 µM (inactive) with MDA-MB-231; 14.1 µM (inactive) in the experiment on MDA-N; 17.1 µM (inactive) in the experiment on NCI-H23. Besides, the GI50 was 23.6 µM (inactive) in the experiment on OVCAR-4; 19.9 µM (inactive) in the experiment with OVCAR-5; 15.4 µM (inactive) in the experiment on SF-539; 12 µM (inactive) with SK-MEL-28; 4.06 µM (inactive) with SR; 15.1 µM (inactive) in the experiment on U-251. The GI50 in the experiment with UACC-62 is 17.9 µM (inactive).
For the compound `O=C1N=C2SC(=S)N=C(S)N2NC12c1ccccc1-c1ccccc12`, the GI50 in the experiment with A498 is 1.55 µM (inactive); with CCRF-CEM, 7.78 µM (inactive); with COLO 205 it was > 10 µM (inactive); in the experiment with HCC 2998, > 10 µM (inactive); in the experiment on HCT-15 it was greater than 10 µM; in the experiment with HOP-92 it was > 10 µM (inactive). Moreover, the GI50 in the experiment on Hs-578T is > 10 µM (inactive); with K562, 8.17 µM (inactive); with LOX IMVI, > 10 µM (inactive); with MDA-MB-231, > 10 µM (inactive); in the experiment with MDA-N it was > 10 µM (inactive); in the experiment with MOLT-4, > 10 µM (inactive). The GI50 in the experiment on NCI-H23 is 9.4 µM (inactive); in the experiment with OVCAR-4 it was 5.13 µM (inactive); with SF-539, > 10 µM (inactive); with SR it was > 10 µM (inactive); with U-251, > 10 µM (inactive); with UACC-62 it was > 10 µM (inactive).
As for `CN/N=C(/CCN1CCCC1)CC(c1ccccc1)c1c(O)c2ccccc2oc1=O` (centres undefined), the GI50 was > 100 µM (inactive) with A498; > 71.9 µM (inactive) in the experiment with CCRF-CEM; 34.9 µM (inactive) in the experiment with COLO 205; > 100 µM (inactive) in the experiment with HCC 2998; greater than 100 µM in the experiment on HCT-15; 0.804 µM (active) in the experiment on HOP-92. For the same compound, the GI50 with Hs-578T is > 100 µM (inactive); in the experiment with K562, > 100 µM (inactive); with LOX IMVI, > 100 µM (inactive); in the experiment with MDA-MB-231, > 100 µM (inactive); with MDA-N, > 100 µM (inactive); in the experiment on MOLT-4, > 65.3 µM (inactive). The GI50 in the experiment with NCI-H23 was > 96.4 µM (inactive); in the experiment on OVCAR-4 it was > 100 µM (inactive); in the experiment with OVCAR-5 it was > 100 µM (inactive); in the experiment with SF-539 it was > 100 µM (inactive); with SK-MEL-28 it was > 100 µM (inactive); in the experiment on SR, > 94.6 µM (inactive). Further, the GI50 with U-251 and with UACC-62 was > 100 µM (inactive) in each case.
As to `CCn1c(SCC(=O)NNC(=S)Nc2ccc([N+](=O)[O-])cc2)nc2ccccc2c1=O`, the GI50 was 48.2 µM (inactive) in the experiment on A498; 37.2 µM (inactive) in the experiment on CCRF-CEM; 47.5 µM (inactive) in the experiment on COLO 205; 50.1 µM (inactive) in the experiment with HCC 2998; 47 µM in the experiment with HCT-15; > 100 µM (inactive) in the experiment with Hs-578T. The GI50 with K562 is 42.7 µM (inactive); with LOX IMVI it was 54.3 µM (inactive); in the experiment on MDA-MB-231 it was > 100 µM (inactive); in the experiment with MDA-N, > 100 µM (inactive); in the experiment on MOLT-4, 23.2 µM (inactive); in the experiment on NCI-H23, 62.5 µM (inactive). Further, the GI50 was 48.5 µM (inactive) in the experiment with OVCAR-4; > 100 µM (inactive) with OVCAR-5; > 100 µM (inactive) with SF-539; 57.5 µM (inactive) in the experiment with SK-MEL-28; 23 µM (inactive) with SR; 73.3 µM (inactive) in the experiment on U-251. The GI50 in the experiment with UACC-62 is 48.9 µM (inactive).
Take `CCOC(=O)n1cncc1CC(NC(=O)Cc1c(C(=O)C=C(C)C)[nH]c2ccccc12)C(=O)OC` (centres undefined): the GI50 is 24.9 µM (inactive) with A498; 0.708 µM (active) with CCRF-CEM; 18.1 µM (inactive) in the experiment with COLO 205; 13.9 µM (inactive) with HCC 2998; 19.1 µM in the experiment with HCT-15; 12 µM (inactive) with HOP-92. Further, the GI50 was 19.3 µM (inactive) in the experiment with Hs-578T; 33.7 µM (inactive) in the experiment on K562; 15.5 µM (inactive) in the experiment with LOX IMVI; 15.5 µM (inactive) with MDA-MB-231; 23 µM (inactive) with MDA-N; 20 µM (inactive) in the experiment on MOLT-4. The GI50 was 25.4 µM (inactive) in the experiment on NCI-H23; 18.5 µM (inactive) in the experiment on OVCAR-4; 15.5 µM (inactive) in the experiment with OVCAR-5; 19.5 µM (inactive) in the experiment on SF-539; 16 µM (inactive) with SK-MEL-28; 3.56 µM (inactive) with SR. For the same compound, the GI50 in the experiment on U-251 is 19.5 µM (inactive); in the experiment on UACC-62, 20.3 µM (inactive).
As to `Cc1ccc(NC(=O)/C(Cc2cc(=O)oc3cc(O)ccc23)=N\NC(=O)C[N+](C)(C)C)cc1C`, the GI50 in the experiment with A498 is > 100 µM (inactive); with CCRF-CEM it was > 100 µM (inactive); in the experiment with COLO 205, > 100 µM (inactive); in the experiment on HCC 2998, > 100 µM (inactive); in the experiment with HCT-15 it was greater than 100 µM; in the experiment with HOP-92, > 100 µM (inactive). Moreover, the GI50 in the experiment with Hs-578T, in the experiment with K562, in the experiment with LOX IMVI, in the experiment with MDA-MB-231, in the experiment on MDA-N and in the experiment with MOLT-4 was > 100 µM (inactive) throughout. The GI50 in the experiment with NCI-H23, with OVCAR-4, in the experiment on OVCAR-5, in the experiment with SF-539, with SK-MEL-28 and in the experiment with SR was > 100 µM (inactive) in each case. For the same compound, the GI50 in the experiment on U-251 and with UACC-62 was > 100 µM (inactive) throughout.
Regarding `CC(C)=CCNc1nc(Cl)nc2[nH]cnc12`, the GI50 in the experiment on A498 was 44 µM (inactive); in the experiment on CCRF-CEM it was 76.6 µM (inactive); in the experiment on COLO 205, > 100 µM (inactive); with HCC 2998 it was > 100 µM (inactive); in the experiment with HOP-92 it was 35 µM (inactive); in the experiment on Hs-578T it was 62.8 µM (inactive). Also, the GI50 with K562 was 32.1 µM (inactive); in the experiment with LOX IMVI it was > 100 µM (inactive); in the experiment with MDA-MB-231, 21.5 µM (inactive); in the experiment on MDA-N it was > 100 µM (inactive); with MOLT-4 it was 84.9 µM (inactive); in the experiment on NCI-H23, 56.6 µM (inactive). For the same compound, the GI50 in the experiment with OVCAR-4 was 54.1 µM (inactive); in the experiment on OVCAR-5, > 100 µM (inactive); in the experiment with SF-539 it was > 100 µM (inactive); with SK-MEL-28, > 100 µM (inactive); with SR, 37 µM (inactive); in the experiment on UACC-62, > 100 µM (inactive).
On to `COc1ccc(C(=O)/C=C/c2ccc(OCC(=N)N)cc2)cc1`, for which the GI50 was 13.6 µM (inactive) with A498; 4.06 µM (inactive) in the experiment on CCRF-CEM; 14.2 µM (inactive) in the experiment with COLO 205; 16.6 µM (inactive) in the experiment on HCC 2998; 17.2 µM with HCT-15; 15.2 µM (inactive) in the experiment with HOP-92. Further, the GI50 was 16.4 µM (inactive) in the experiment on Hs-578T; 3.44 µM (inactive) in the experiment on K562; 12.9 µM (inactive) with MDA-MB-231; 16.7 µM (inactive) in the experiment with MDA-N; 3.58 µM (inactive) with MOLT-4; 18.7 µM (inactive) in the experiment on NCI-H23. Further, the GI50 in the experiment with OVCAR-4 was 14.7 µM (inactive); in the experiment on OVCAR-5 it was 31.7 µM (inactive); in the experiment with SF-539, 15.8 µM (inactive); in the experiment on SK-MEL-28 it was 15.3 µM (inactive); with SR, 5 µM (inactive); in the experiment on U-251 it was 13.9 µM (inactive). For the same compound, the GI50 in the experiment on UACC-62 was 15.6 µM (inactive).
On to `C#CCCCOc1ncccn1`, for which the GI50 with A498 is > 100 µM (inactive); in the experiment with CCRF-CEM, > 10 µM (inactive); with COLO 205, > 100 µM (inactive); with HCC 2998, > 100 µM (inactive); in the experiment with HOP-92, > 100 µM (inactive); in the experiment with Hs-578T it was > 100 µM (inactive). Also, the GI50 with K562, with LOX IMVI, with MDA-MB-231, with MDA-N, with MOLT-4 and with NCI-H23 was > 100 µM (inactive) in each case. The GI50 in the experiment on OVCAR-4, in the experiment with OVCAR-5, with SF-539, in the experiment on SK-MEL-28, in the experiment with SR and in the experiment on U-251 was > 100 µM (inactive) throughout. Further, the GI50 with UACC-62 was > 100 µM (inactive).
